Laboratory results reported in patent US8952199B2, “Methods of and formulations for reducing and inhibiting the growth of the concentration of microbes in water-based fluids and systems used with them” (Dow Global Technologies LLC, priority 2007, dated 2015).

How the values were obtained:
Type in all cases: cell-based
[1] = test system: mixed oil/gas field aerobic bacteria; assay: Biocidal efficacy against mixed oil/gas field aerobic bacteria in sterile salt solution, serial dilution count; conditions: for Concentration required to achieve at least 3 log reduction of aerobic bacteria: active, 37° C.
Procedure: A sterile salt solution (1.2490 g NaCl, 2.9290 g NaHCO3, 0.1910 g Na2CO3, 0.0060 g Na2SO4, 0.033 g CaCl2, and 0.0590 g MgCl2.6H2O in 1 L water) is contaminated with mixed oil/gas field aerobic bacteria at final bacterial concentrations of ˜10^7 CFU/mL. At day zero, either glutaraldehyde (UCARCIDE™ 250, 50% glutaraldehyde in water, The Dow Chemical Company) or THPS (AQUCAR™ THPS 75, 75% THPS in water, The Dow Chemical Company) is added and the solution mixed well to provide a desired final concentration. The solution is then incubated at 37° C. Bacterial populations are monitored over time using a serial dilution method. In experiments running over seven days, samples are reinoculated at day seven. […]

[2] = test system: mixed oil/gas field anaerobic sulfate reducing bacteria; assay: Biocidal efficacy against mixed oil/gas field anaerobic sulfate reducing bacteria in deaerated salt solution, serial dilution count; conditions: for Concentration required to achieve at lease 3 log bacterial reduction in 1 hr / Concentration required to achieve at least 3 log reduction of anaerobic sulfate reducing bacteria: active; for Concentration required to achieve at lease 3 log bacterial reduction in 1 hr: biocide alone, anaerobic oil/gas field SRB bacteria; for Concentration required to achieve at least 3 log reduction of anaerobic sulfate reducing bacteria: 37° C.
Procedure: A sterile salt solution as described in Example 1 is deaerated, then contaminated with mixed oil/gas field anaerobic sulfate reducing bacteria at final bacterial concentrations of ˜10^7 CFU/mL. At time=zero, either glutaraldehyde (UCARCIDE™ 250) or THPS (AQUCAR™ THPS 75) is added and the solution mixed well to provide a desired final concentration. The solutions are incubated at 37° C. in an anaerobic environment (Bactron III anaerobic chamber). Bacterial populations are monitored over time using a serial dilution method. In experiments running over seven days, samples are reinoculated at day seven.
(§1) The testing protocols described in Examples 1 and 2, respectively, are used for oil/gas field aerobic bacteria and anaerobic sulfate reducing bacteria. For the standard bacterial strains Enterobacter aerogenes ATCC 13048, Salmonella choleraesius ATCC 10708, Pseudomonas aeruginosa ATCC 10145, Staphylococcus aureus ATCC 6538, Klebsiella pneumoniae ATCC 8308, Bacillus subtillus ATCC 8473, Escherichia coli ATCC 11229, and Pseudomonas aeruginosa ATCC 39451, separate experiments are performed as described in Example 1, but using a sterile 0.85% NaCl solution instead of the salt solution. For standard marine bacteria Pseudomonas sp. ATCC 39451, experiments are performed as described in Examples 1 and 2, but at pH 8.0 using artificial sea water (24.6 g NaCl, 0.67 g KCl, 1.36 g CaCl2.2H2O, 6.29 g MgSO4.7H2O, 4.66 g MgCl2.6H2O and 0.18 g NaHCO3 in 1 L water). All data is collected at time=1 hour.

[3] = test system: Aerobic bacteria (ATCC bacterial strains, oil/gas field aerobic bacteria, standard marine bacterium); assay: Concentration for at least 3 log reduction in 1 hr, aerobic bacteria (one value for ATCC strains, oil/gas field aerobic bacteria and standard marine bacterium); conditions: active, biocide alone
Procedure: A sterile salt solution (1.2490 g NaCl, 2.9290 g NaHCO3, 0.1910 g Na2CO3, 0.0060 g Na2SO4, 0.033 g CaCl2, and 0.0590 g MgCl2.6H2O in 1 L water) is contaminated with mixed oil/gas field aerobic bacteria at final bacterial concentrations of ˜10^7 CFU/mL. At day zero, either glutaraldehyde (UCARCIDE™ 250, 50% glutaraldehyde in water, The Dow Chemical Company) or THPS (AQUCAR™ THPS 75, 75% THPS in water, The Dow Chemical Company) is added and the solution mixed well to provide a desired final concentration. The solution is then incubated at 37° C. Bacterial populations are monitored over time using a serial dilution method. In experiments running over seven days, samples are reinoculated at day seven.
as §1, with “ATCC 39451, experiments are performed as described in Examples 1 and 2, but at pH 8.0 using artificial sea water (24.6 g NaCl, 0.67 g KCl, 1.36 g CaCl2.2H2O, 6.29 g MgSO4.7H2O, 4.66 g MgCl2.6H2O and 0.18 g NaHCO3 in 1 L water). All data is collected at time=1 hour.” left out

[4] = time interval 8 days, reinoculated at day seven
[5] = time interval 9 days, reinoculated at day seven

Row | Compound | Concentration required to achieve at least 3 log reduction of aerobic bacteria ([1]; time interval 2 hrs) | Concentration required to achieve at least 3 log reduction of aerobic bacteria ([1]; time interval 4 hrs) | Concentration required to achieve at least 3 log reduction of aerobic bacteria ([1]; time interval 1 day) | Concentration required to achieve at least 3 log reduction of aerobic bacteria ([1]; time interval 3 days) | Concentration required to achieve at least 3 log reduction of aerobic bacteria ([1]; time interval 4 days) | Concentration required to achieve at least 3 log reduction of aerobic bacteria ([1]; time interval 7 days) | Concentration required to achieve at least 3 log reduction of aerobic bacteria [1, 4] | Concentration required to achieve at least 3 log reduction of aerobic bacteria [1, 5] | Concentration required to achieve at lease 3 log bacterial reduction in 1 hr [2] | Concentration required to achieve at least 3 log reduction of anaerobic sulfate reducing bacteria ([2]; time interval 2 hrs) | Concentration required to achieve at least 3 log reduction of anaerobic sulfate reducing bacteria ([2]; time interval 4 hrs) | Concentration required to achieve at least 3 log reduction of anaerobic sulfate reducing bacteria ([2]; time interval 1 day) | Concentration required to achieve at least 3 log reduction of anaerobic sulfate reducing bacteria ([2]; time interval 2 days) | Concentration required to achieve at least 3 log reduction of anaerobic sulfate reducing bacteria ([2]; time interval 3 days) | Concentration required to achieve at least 3 log reduction of anaerobic sulfate reducing bacteria ([2]; time interval 4 days) | Concentration required to achieve at least 3 log reduction of anaerobic sulfate reducing bacteria ([2]; time interval 7 days) | Concentration required to achieve at least 3 log reduction of anaerobic sulfate reducing bacteria [2, 4] | Concentration required to achieve at least 3 log reduction of anaerobic sulfate reducing bacteria [2, 5] | Concentration required to achieve at lease 3 log bacterial reduction in 1 hr [3] | further results
1 | O=CCCCC=O [glutaraldehyde] | 25.0 ppm | 25.0 ppm | 6.3 ppm | 6.3 ppm | 6.3 ppm | 12.5 ppm | 25.0 ppm | 25.0 ppm | 29.67 ppm | 12.5 ppm | 12.5 ppm | 12.5 ppm | 12.5 ppm | 25.0 ppm | 25.0 ppm | 25.0 ppm | 25.0 ppm | 50.0 ppm | 44.49 ppm | Efficacy against aerobic bacteria, compared in words ([1]; glutaraldehyde versus hydroxymethyl-substituted phosphorus compounds): higher efficacy against aerobic bacteria; Speed of action on anaerobic sulfate reducing bacteria, compared in words ([2]; glutaraldehyde versus hydroxymethyl-substituted compounds): more rapid results
2 | tetrakis(hydroxymethyl)phosphonium sulfate [THPS] | 25.0 ppm | 25.0 ppm | 12.5 ppm | 12.5 ppm | 25.0 ppm | 25.0 ppm | 100.0 ppm | 100.0 ppm | 44.49 ppm | 50.0 ppm | 25.0 ppm | 25.0 ppm | 12.5 ppm | 6.3 ppm | 6.3 ppm | 6.3 ppm | 12.5 ppm | 25.0 ppm | 44.49 ppm | 
